Reference: PMC12670426 (Journal of Medicinal Chemistry, 2025)
Where two headings read alike, the source gives them in different places.

Tests used:
[1] = biological target: T1, human galectin-1 (Gal-1, full length) (Homo sapiens, UniProt P09382); experiment: Competitive fluorescence polarization assay, Gal-1; assay type: binding
T1 construct: Gal-1 is a prototype galectin consisting of a single CRD and was used in full length; 6xHis tag with TEV protease site (N, cleaved yes); made in house; host or cells: BL21 Escherichia coli (pET-15b)
T1 sequence (P09382 2-135): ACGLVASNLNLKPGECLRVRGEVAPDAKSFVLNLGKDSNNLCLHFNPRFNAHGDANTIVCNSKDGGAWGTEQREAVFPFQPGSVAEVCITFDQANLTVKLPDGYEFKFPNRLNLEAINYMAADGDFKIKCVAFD
Description: (§1) Our investigation of the structure–activity relationship of N-aryl-N-lactosylamides started with an initial screening of substituted acetanilides (Table ). These compounds can be readily synthesized from a wide range of commercially available substituted anilines. Affinity was evaluated using a fluorescence polarization assay, which enables reliable determination of dissociation constants (K d) between small molecules and galectins. All inhibitors in this series were tested against the two most common human galectins: Gal-1 and Gal-3. Gal-1 is a prototype galectin consisting of a single CRD and was used in full length. In the case of Gal-3, which consists of the C-terminal CRD and N-terminal unfolded region, only the C-terminal domain was used (Gal-3C). Affinities were compared to methyl β-lactoside (β-LacOMe) as a baseline.
(§2) Fluorescence polarization experiments for determining inhibitor affinities were performed using the same instrumentation and settings as described for the direct binding experiments. […] The galectin–probe mixture was subsequently added using a Certus Flex liquid handler (Fritz Gyger AG, Switzerland) to reach a final volume of 5 μL. Anisotropy was measured after 30–60 min incubation at 25 °C. Inhibitor dissociation constants (K d) were calculated using Wang’s exact cubic model for competitive binding implemented in the BindCurve package. Protein and probe concentrations used in these competitive experiments are provided in the Supporting Information.
(§3) Competitive binding was modeled by Wang’s exact cubic model,3 which is written as […]
(§4) r = rmin + (rmax − rmin) 3 (6) […]
(§5) where r, rmin and rmax have the same meaning as in Equation 1. The coefficients a, b, and c are […]
(§6) a = Kd∗ + Kd + [L∗]T + [L]T − [R]T (7) b = Kd∗([L]T − [R]T) + Kd([L∗]T − [R]T) + Kd∗ Kd (8) […]
(§7) where Kd∗ is the dissociation constant of the probe, Kd is the dissociation constant of the […]
(§8) the unlabeled ligand, and [R]T is the total concentration of the receptor. The angle θ is defined […]
(§9) In the competitive binding experiments, the values of [L∗]T, [R]T and Kd∗ are known and [L]T is titrated. The values of minimal and maximal anisotropy rmin and rmax were fixed during fitting at the values of the minimal and maximal asymptotes obtained from the direct binding experiments. The value of Kd was calculated as the only unfixed parameter in the model.
(§10) Experimental constants used for the competitive fluorescence polarization experiments are […]
(§11) Table S2. Experimental constants used for competitive fluorescence polarization experiments. […]

[2] = biological target: T2, human galectin-3C (Gal-3C, C-terminal CRD of galectin-3) (Homo sapiens, UniProt P17931); experiment: Competitive fluorescence polarization assay, Gal-3C; assay type: binding
T2 construct: only the C-terminal domain was used (Gal-3C); 6xHis tag with TEV protease site (N, cleaved yes); made in house; host or cells: BL21 Escherichia coli (pET-15b)
T2 sequence (P17931 118-248 limits assumed): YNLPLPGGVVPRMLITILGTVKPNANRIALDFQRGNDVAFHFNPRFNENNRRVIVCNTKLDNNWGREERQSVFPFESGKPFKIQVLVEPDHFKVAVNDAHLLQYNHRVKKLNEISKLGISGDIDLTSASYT
Description: as §1, §2, §3, §4, §5, §6, §7, §8, §9, §10, §11

[3] = CSV supplement, unrounded mean, read-out: Gal1_IC50_mean_uM
[4] = CSV supplement, unrounded mean, read-out: Gal1_Kd_mean_uM
[5] = competitive fluorescence polarization, mean ± SD, read-out: Kd Gal-1
[6] = four-parameter logistic model, mean ± SD, read-out: IC50 Gal-1
[7] = CSV supplement, unrounded mean, read-out: Gal3C_IC50_mean_uM
[8] = CSV supplement, unrounded mean, read-out: Gal3C_Kd_mean_uM
[9] = competitive fluorescence polarization, mean ± SD, read-out: Kd Gal-3C
[10] = four-parameter logistic model, mean ± SD, read-out: IC50 Gal-3C

| Structure (SMILES) | IC50 [1, 3] | Kd [1, 4] | improvement in affinity toward Gal-1 compared to β-LacOMe ([1]; compared to β-LacOMe) | Kd [1, 5] | IC50 [1, 6] | IC50 [2, 7] | Kd [2, 8] | improvement in affinity toward Gal-3C compared to β-LacOMe ([2]; compared to β-LacOMe) | Kd [2, 9] | IC50 [2, 10] |
| --- | --- | --- | --- | --- | --- | --- | --- | --- | --- | --- |
| CC(=O)N(c1ccccc1)[C@@H]1O[C@H](CO)[C@@H](O[C@@H]2O[C@H](CO)[C@H](O)[C@H](O)[C@H]2O)[C@H](O)[C@H]1O [Compound 3a, N-[4-O-(β-D-Galactopyranosyl)-β-D-glucopyranosyl]-N-phenylacetamide] | 908 µM | 586 µM | approximately 2 fold | 590 ± 80 µM | 910 ± 20 µM | 287 µM | 106 µM | approximately 2 fold | 110 ± 30 µM | 290 ± 1 µM |
| CC(=O)N(c1cccc(-c2cn(C)nn2)c1)[C@@H]1O[C@H](CO)[C@@H](O[C@@H]2O[C@H](CO)[C@H](O)[C@H](O)[C@H]2O)[C@H](O)[C@H]1O [Compound 3aa, N-[4-O-(β-D-Galactopyranosyl)-β-D-glucopyranosyl]-N-[3-(1-methyl-1H-1,2,3-triazol-4-yl)phenyl]acetamide] | 899 µM | 571 µM |  | 570 ± 60 µM | 900 ± 100 µM | 191 µM | 68.7 µM |  | 69 ± 20 µM | 190 ± 9 µM |
| CC(=O)N(c1cc(Cl)cc(C(=O)O)c1)[C@@H]1O[C@H](CO)[C@@H](O[C@@H]2O[C@H](CO)[C@H](O)[C@H](O)[C@H]2O)[C@H](O)[C@H]1O [Compound 3ab, N-[4-O-(β-D-Galactopyranosyl)-β-D-glucopyranosyl]-N-(3-carboxy-5-chlorophenyl)acetamide] | 957 µM | 651 µM |  | 650 ± 100 µM | 960 ± 40 µM | 130 µM | 50 µM |  | 50 ± 9 µM | 130 ± 3 µM |
| CC(=O)N(c1cc(Br)cc(C(=O)O)c1)[C@@H]1O[C@H](CO)[C@@H](O[C@@H]2O[C@H](CO)[C@H](O)[C@H](O)[C@H]2O)[C@H](O)[C@H]1O [Compound 3ac, N-[4-O-(β-D-Galactopyranosyl)-β-D-glucopyranosyl]-N-(3-bromo-5-carboxyphenyl)acetamide] | 967 µM | 625 µM |  | 630 ± 100 µM | 970 ± 30 µM | 160 µM | 60.2 µM |  | 60 ± 10 µM | 160 ± 20 µM |
| COC(=O)c1cc(N(C(C)=O)[C@@H]2O[C@H](CO)[C@@H](O[C@@H]3O[C@H](CO)[C@H](O)[C@H](O)[C@H]3O)[C@H](O)[C@H]2O)c2cc[nH]c2c1 [Compound 3ae, N-[4-O-(β-D-Galactopyranosyl)-β-D-glucopyranosyl]-N-[6-(methylcarboxy)-1H-indol-4-yl]acetamide] | 1030 µM | 637 µM |  | 640 ± 90 µM | 1000 ± 100 µM | 42.5 µM | 15.9 µM |  | 16 ± 2 µM | 43 ± 4 µM |
| CC(=O)N(c1ccc(C)cc1)[C@@H]1O[C@H](CO)[C@@H](O[C@@H]2O[C@H](CO)[C@H](O)[C@H](O)[C@H]2O)[C@H](O)[C@H]1O [Compound 3b, N-[4-O-(β-D-Galactopyranosyl)-β-D-glucopyranosyl]-N-(4-methylphenyl)acetamide] | 919 µM | 481 µM |  | 480 ± 100 µM | 920 ± 90 µM | 404 µM | 133 µM |  | 130 ± 20 µM | 400 ± 50 µM |
| C#Cc1cccc(N(C(C)=O)[C@@H]2O[C@H](CO)[C@@H](O[C@@H]3O[C@H](CO)[C@H](O)[C@H](O)[C@H]3O)[C@H](O)[C@H]2O)c1 [Compound 3c, N-[4-O-(β-D-Galactopyranosyl)-β-D-glucopyranosyl]-N-(3-ethynylphenyl)acetamide] | 1570 µM | 1010 µM |  | 1000 ± 70 µM | 1600 ± 300 µM | 500 µM | 182 µM |  | 180 ± 50 µM | 500 ± 30 µM |
